{"source": "patent US20240199546A1", "about": "“INHIBITORS OF SOLUTE CARRIER FAMILY 6A MEMBER 19 (SLC6A19) AND METHODS OF USE THEREOF” (Maze Therapeutics, Inc., priority 2022, published 2024)", "data": [{"target": "T1, human SLC6A19 and TMEM27 (Homo sapiens, UniProt Q695T7)", "T1 construct": "expressed in transfected cells", "T1 sequence (Q695T7 1-634)": "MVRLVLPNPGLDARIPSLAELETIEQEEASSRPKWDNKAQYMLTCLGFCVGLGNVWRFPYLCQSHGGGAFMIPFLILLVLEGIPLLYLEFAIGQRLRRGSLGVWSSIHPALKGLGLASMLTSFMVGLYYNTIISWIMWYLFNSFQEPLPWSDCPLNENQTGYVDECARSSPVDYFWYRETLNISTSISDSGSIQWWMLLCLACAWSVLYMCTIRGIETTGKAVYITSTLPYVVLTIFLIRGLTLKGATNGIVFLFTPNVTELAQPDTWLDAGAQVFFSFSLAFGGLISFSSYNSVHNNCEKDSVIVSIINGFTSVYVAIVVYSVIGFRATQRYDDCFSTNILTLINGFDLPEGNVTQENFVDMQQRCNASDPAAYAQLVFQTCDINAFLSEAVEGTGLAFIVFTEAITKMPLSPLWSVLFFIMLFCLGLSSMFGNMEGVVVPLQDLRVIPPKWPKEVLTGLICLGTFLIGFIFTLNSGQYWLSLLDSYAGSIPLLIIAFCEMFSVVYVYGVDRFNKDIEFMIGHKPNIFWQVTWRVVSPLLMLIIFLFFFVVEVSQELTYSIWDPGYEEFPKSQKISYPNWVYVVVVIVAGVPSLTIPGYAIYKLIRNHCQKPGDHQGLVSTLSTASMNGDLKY", "T1 sequence (Q9HBJ8 15-222 partner)": "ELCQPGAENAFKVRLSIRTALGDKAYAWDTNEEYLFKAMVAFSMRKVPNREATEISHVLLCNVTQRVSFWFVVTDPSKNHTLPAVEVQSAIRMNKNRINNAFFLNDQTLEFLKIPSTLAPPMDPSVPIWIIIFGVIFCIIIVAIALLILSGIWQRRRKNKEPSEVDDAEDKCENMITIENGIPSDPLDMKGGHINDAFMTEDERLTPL", "assay": "Radiolabelled (3H) leucine uptake in CHO cells with doxycycline-inducible expression of human SLC6A19 and TMEM27 (Example B-1)", "type": "cell-based", "details": "CHO cells with doxycycline-inducible expression of human SLC6A19 and TMEM27, read-out: SLC6A19_Radioligand Uptake Assay IC50", "method_in_brief": "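CHO cells were induced with doxycycline for 18 h at 37 °C, washed in HBSS, then exposed to compounds for 1 h: 8-point, 3-fold dilutions in duplicate, 0.5% DMSO final. Uptake measured by scintillation counting after 2 h shaking. Activity normalized with positive control as 0% and DMSO as 100%.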", "units": {"IC50": "nM"}, "values": [{"smiles": "CC1CN(C(=O)NCc2cc3cc(Cl)c(OCc4cscn4)cc3[nH]2)C1", "note": "[Compound 80, N-((5-chloro-6-(thiazol-4-ylmethoxy)-1H-indol-2-yl)methyl)-3-methylazetidine-1-carboxamide]", "IC50": 350}, {"smiles": "CC(=O)C(=O)NCc1cc2cc(Cl)c(OCc3cc(C)no3)cc2[nH]1", "note": "[Compound 582, N-((5-chloro-6-((3-methylisoxazol-5-yl)methoxy)-1H-indol-2-yl)methyl)-2-oxopropanamide]", "IC50": 455}, {"smiles": "CO[C@@H](C)C(=O)NCc1cc2cc(Cl)c(OCc3cc(C)no3)cc2[nH]1", "note": "[Compound 313, (S)-N-((5-chloro-6-((3-methylisoxazol-5-yl)methoxy)-1H-indol-2-yl)methyl)-2-methoxypropanamide]", "IC50": 125}, {"smiles": "[2H]C([2H])([2H])C(=O)NCc1cc2cc(F)c(OCc3cscn3)cc2[nH]1", "note": "[Compound 566, N-((5-fluoro-6-(thiazol-4-ylmethoxy)-1H-indol-2-yl)methyl)acetamide-2,2,2-d3]", "IC50": 146}, {"smiles": "Cc1cc(COc2cc3[nH]c(CNC(=O)C45CCC(CC4)O5)cc3cc2Cl)on1", "note": "[Compound 296, N-((5-chloro-6-((3-methylisoxazol-5-yl)methoxy)-1H-indol-2-yl)methyl)-7-oxabicyclo[2.2.1]heptane-1-carboxamide]", "IC50": 976}, {"smiles": "CC(=O)NCc1cc2cc(F)c(OCc3cscn3)cc2[nH]1", "note": "[Compound 208, N-((5-fluoro-6-(thiazol-4-ylmethoxy)-1H-indol-2-yl)methyl)acetamide]", "IC50": 133}, {"smiles": "CC1CC(C(=O)NCc2cc3cc(Cl)c(OCc4cscn4)cc3[nH]2)C1", "note": "(stereo not drawn) [Compound 561, N-((5-chloro-6-(thiazol-4-ylmethoxy)-1H-indol-2-yl)methyl)-3-methylcyclobutane-1-carboxamide]", "IC50": 570}, {"smiles": "O=C(NCc1cc2cc(OC(F)(F)F)c(OCc3cocn3)cc2[nH]1)N1CCCC1", "note": "[Compound 417, N-((6-(oxazol-4-ylmethoxy)-5-(trifluoromethoxy)-1H-indol-2-yl)methyl)pyrrolidine-1-carboxamide]", "IC50": 394}, {"smiles": "Cc1cc(COc2cc3[nH]c(CNC(=O)C(C)(F)F)cc3cc2Cl)on1", "note": "[Compound 440, N-((5-chloro-6-((3-methylisoxazol-5-yl)methoxy)-1H-indol-2-yl)methyl)-2,2-difluoropropanamide]", "IC50": 111}, {"smiles": "Cc1cc(COc2cc3[nH]c(CNC(=O)C(C)C#N)cc3cc2Cl)on1", "note": "(racemic) [Compound 486, (S)-N-((5-chloro-6-((3-methylisoxazol-5-yl)methoxy)-1H-indol-2-yl)methyl)-2-cyanopropanamide and (R)-N-((5-chloro-6-((3-methylisoxazol-5-yl)methoxy)-1H-indol-2-yl)methyl)-2-cyanopropanamide]", "IC50": 387}, {"smiles": "CC1(C(=O)NCc2cc3cc(Cl)c(OCC4CC4)cc3[nH]2)CC1", "note": "[Compound 633, N-((5-chloro-6-(cyclopropylmethoxy)-1H-indol-2-yl)methyl)-1-methylcyclopropane-1-carboxamide]", "IC50": 181}, {"smiles": "O=C(NCc1cc2cc(Cl)c(OCc3cscn3)cc2[nH]1)C12CCC(CC1)C2", "note": "[Compound 556, N-((5-chloro-6-(thiazol-4-ylmethoxy)-1H-indol-2-yl)methyl)bicyclo[2.2.1]heptane-1-carboxamide]", "IC50": 1200}, {"smiles": "CC(C)c1cc(COc2cc3[nH]c(CNC(=O)C4(C)CC4)cc3cc2Cl)no1", "note": "[Compound 102, N-((5-chloro-6-((5-isopropylisoxazol-3-yl)methoxy)-1H-indol-2-yl)methyl)-1-methylcyclopropane-1-carboxamide]", "IC50": 17600}, {"smiles": "Cc1cc(COc2cc3[nH]c(CNC(=O)[C@H]4C[C@H]4F)cc3cc2Cl)on1", "note": "[Compound 539, (1R,2R)-N-((5-chloro-6-((3-methylisoxazol-5-yl)methoxy)-1H-indol-2-yl)methyl)-2-fluorocyclopropane-1-carboxamide]", "IC50": 123}, {"smiles": "Cc1cc(COc2cc3[nH]c(CNC(=O)[C@H]4CCCN4C)cc3cc2Cl)on1", "note": "[Compound 578, (R)-N-((5-chloro-6-((3-methylisoxazol-5-yl)methoxy)-1H-indol-2-yl)methyl)-1-methylpyrrolidine-2-carboxamide]", "IC50": "> 5550"}, {"smiles": "CC1(C(=O)NCc2cc3cc(F)c(CCc4cscn4)cc3[nH]2)CC1", "note": "[Compound 594, N-((5-fluoro-6-(2-(thiazol-4-yl)ethyl)-1H-indol-2-yl)methyl)-1-methylcyclopropane-1-carboxamide]", "IC50": 120}, {"smiles": "CC1(C(=O)NCc2cc3cc(Cl)c(OCc4cccc(O)c4)cc3[nH]2)CC1", "note": "[Compound 198, N-((5-chloro-6-((3-hydroxybenzyl)oxy)-1H-indol-2-yl)methyl)-1-methylcyclopropane-1-carboxamide]", "IC50": 2050}, {"smiles": "COc1cc2cc(CNC(=O)C3(C)CC3)[nH]c2cc1CCn1cccn1", "note": "[Compound 587, N-((6-(2-(1H-pyrazol-1-yl)ethyl)-5-methoxy-1H-indol-2-yl)methyl)-1-methylcyclopropane-1-carboxamide]", "IC50": 260}, {"smiles": "C[C@H]1CCCN1C(=O)NCc1cc2cc(F)c(OCc3cscn3)cc2[nH]1", "note": "[Compound 385, (S)-N-((5-fluoro-6-(thiazol-4-ylmethoxy)-1H-indol-2-yl)methyl)-2-methylpyrrolidine-1-carboxamide]", "IC50": 549}, {"smiles": "CC(=O)NCc1cc2c(F)cc(OCc3cc(C)no3)cc2[nH]1", "note": "[Compound 527, N-((4-fluoro-6-((3-methylisoxazol-5-yl)methoxy)-1H-indol-2-yl)methyl)acetamide]", "IC50": 4610}, {"smiles": "O=C(NCc1cc2cc(OC(F)(F)F)c(CCc3ccon3)cc2[nH]1)N1CCC1", "note": "[Compound 597, N-((6-(2-(isoxazol-3-yl)ethyl)-5-(trifluoromethoxy)-1H-indol-2-yl)methyl)azetidine-1-carboxamide]", "IC50": 307}, {"smiles": "CC(=O)NCc1cc2cc(Cl)c(OCC3COCCO3)cc2[nH]1", "note": "(stereo not drawn) [Compound 457, N-((6-((1,4-dioxan-2-yl)methoxy)-5-chloro-1H-indol-2-yl)methyl)acetamide]", "IC50": 3640}, {"smiles": "CCc1cc(COc2ccc3cc(CNC(=O)C4(C)CC4)[nH]c3c2)no1", "note": "[Compound 185, N-((6-((5-ethylisoxazol-3-yl)methoxy)-1H-indol-2-yl)methyl)-1-methylcyclopropane-1-carboxamide]", "IC50": 1050}, {"smiles": "[2H]C([2H])([2H])C(=O)NCc1cc2cc(Cl)c(OCc3cscn3)cc2[nH]1", "note": "[Compound 570, N-((5-chloro-6-(thiazol-4-ylmethoxy)-1H-indol-2-yl)methyl)acetamide-2,2,2-d3]", "IC50": 80.4}, {"smiles": "CC1(C(=O)NCc2cc3cc(C(F)F)c(OCc4ccon4)cc3[nH]2)CC1", "note": "[Compound 646, N-((5-(difluoromethyl)-6-(isoxazol-3-ylmethoxy)-1H-indol-2-yl)methyl)-1-methylcyclopropane-1-carboxamide]", "IC50": 539}, {"smiles": "O=C(NCc1cc2cc(Cl)c(OCc3cscn3)cc2[nH]1)C12CC(C1)C2", "note": "[Compound 552, N-((5-chloro-6-(thiazol-4-ylmethoxy)-1H-indol-2-yl)methyl)bicyclo[1.1.1]pentane-1-carboxamide]", "IC50": 340}, {"smiles": "O=C(NCc1cc2cc(OC(F)(F)F)c(CCc3cocn3)cc2[nH]1)N1CCC1", "note": "[Compound 467, N-((6-(2-(oxazol-4-yl)ethyl)-5-(trifluoromethoxy)-1H-indol-2-yl)methyl)azetidine-1-carboxamide]", "IC50": 145}]}]}
